Results reported in paper PMC8881512 (Nature Communications, 2022).

What was measured:
MDA-MB-231 cells = experiment: Cell proliferation, MDA-MB-231; assay type: cell-based; conditions: 0.5 µM or 2 µM VT02956 for 4 days; Supplementary Fig. 8e
Description: (§1) Cell proliferation rates were determined by automated cell counter. In brief, cells were plated at density of 0.1 million cells per well in six-well plate. Cell numbers were counted by the indicated time point as stated in the figure legends.

melanoma B16 cells = experiment: Cell proliferation, B16; assay type: cell-based; conditions: 0.5 µM or 2 µM VT02956 for 4 days; Supplementary Fig. 8f
Description: as §1

STK38/NDR1 = biological target: T1, STK38/NDR1 (Homo sapiens, UniProt Q15208); experiment: Kinome profiling; assay type: biochemical; conditions: VT02956 (5 nM), read-out: % enzymatic activity relative to DMSO controls
T1 construct: LATS1/LATS2 enzymes from Signalchem

LATS1 = biological target: T2, LATS1 (Homo sapiens, UniProt O95835); experiment: Kinome profiling; assay type: biochemical; conditions: VT02956 (5 nM)
T2 construct: purchased Signalchem
T2 sequence (O95835 1-1130): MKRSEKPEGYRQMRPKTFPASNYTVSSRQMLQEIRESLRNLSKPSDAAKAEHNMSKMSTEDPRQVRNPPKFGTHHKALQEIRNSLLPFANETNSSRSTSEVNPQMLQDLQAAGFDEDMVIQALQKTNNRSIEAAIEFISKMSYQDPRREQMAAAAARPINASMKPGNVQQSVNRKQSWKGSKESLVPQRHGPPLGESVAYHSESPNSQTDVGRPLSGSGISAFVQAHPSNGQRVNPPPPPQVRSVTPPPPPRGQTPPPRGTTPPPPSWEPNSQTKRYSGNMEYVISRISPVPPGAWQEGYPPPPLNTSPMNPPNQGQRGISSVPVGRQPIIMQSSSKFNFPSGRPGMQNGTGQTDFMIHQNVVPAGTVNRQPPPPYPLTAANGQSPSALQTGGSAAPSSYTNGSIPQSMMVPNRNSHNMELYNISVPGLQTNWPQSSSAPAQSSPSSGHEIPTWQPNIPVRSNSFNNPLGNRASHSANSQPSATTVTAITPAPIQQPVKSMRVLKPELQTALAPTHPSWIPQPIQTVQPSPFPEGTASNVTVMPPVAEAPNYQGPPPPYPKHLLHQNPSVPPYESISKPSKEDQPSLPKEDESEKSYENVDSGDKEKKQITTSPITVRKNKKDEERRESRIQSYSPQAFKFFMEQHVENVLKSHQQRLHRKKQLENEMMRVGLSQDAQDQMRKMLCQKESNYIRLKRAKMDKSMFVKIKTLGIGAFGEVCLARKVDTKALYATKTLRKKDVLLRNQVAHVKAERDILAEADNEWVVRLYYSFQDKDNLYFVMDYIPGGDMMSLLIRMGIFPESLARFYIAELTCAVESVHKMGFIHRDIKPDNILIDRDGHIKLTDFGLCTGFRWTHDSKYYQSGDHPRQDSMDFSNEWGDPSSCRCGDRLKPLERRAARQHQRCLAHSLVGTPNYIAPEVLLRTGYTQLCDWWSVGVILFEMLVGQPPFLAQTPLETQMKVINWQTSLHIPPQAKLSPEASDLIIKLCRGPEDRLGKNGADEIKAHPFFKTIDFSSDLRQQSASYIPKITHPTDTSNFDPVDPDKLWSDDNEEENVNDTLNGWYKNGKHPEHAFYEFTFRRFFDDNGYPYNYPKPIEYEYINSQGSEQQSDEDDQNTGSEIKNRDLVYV

PKAcg = biological target: T3, PKAcg (Homo sapiens, UniProt P22612); experiment: Kinome profiling; assay type: biochemical; conditions: VT02956 (5 nM), read-out: % enzymatic activity relative to DMSO controls
T3 construct: LATS1/LATS2 enzymes from Signalchem

PKN3/PRK3 = biological target: T4, PKN3/PRK3 (Homo sapiens, UniProt Q6P5Z2); experiment: Kinome profiling; assay type: biochemical; conditions: VT02956 (5 nM)
T4 construct: LATS1/LATS2 enzymes from Signalchem

PKA = biological target: T5, PKA (Homo sapiens, UniProt P17612); experiment: Kinome profiling; assay type: biochemical; conditions: VT02956 (5 nM), read-out: % enzymatic activity relative to DMSO controls
T5 construct: LATS1/LATS2 enzymes from Signalchem

PKN1/PRK1 = biological target: T6, PKN1/PRK1 (Homo sapiens, UniProt Q16512); experiment: Kinome profiling; assay type: biochemical; conditions: VT02956 (5 nM), read-out: % enzymatic activity relative to DMSO controls
T6 construct: LATS1/LATS2 enzymes from Signalchem

RIPK2 = biological target: T7, RIPK2 (Homo sapiens, UniProt O43353); experiment: Kinome profiling; assay type: biochemical; conditions: VT02956 (5 nM), read-out: % enzymatic activity relative to DMSO controls
T7 construct: LATS1/LATS2 enzymes from Signalchem

PKMYT1 = biological target: T8, PKMYT1 (Homo sapiens, UniProt Q99640); experiment: Kinome profiling; assay type: biochemical; conditions: VT02956 (5 nM)
T8 construct: LATS1/LATS2 enzymes from Signalchem

FER = biological target: T9, FER (Homo sapiens, UniProt P16591); experiment: Kinome profiling; assay type: biochemical; conditions: VT02956 (5 nM), read-out: % enzymatic activity relative to DMSO controls
T9 construct: LATS1/LATS2 enzymes from Signalchem

TYK2 = biological target: T10, TYK2 (Homo sapiens, UniProt P29597); experiment: Kinome profiling; assay type: biochemical; conditions: VT02956 (5 nM)
T10 construct: LATS1/LATS2 enzymes from Signalchem

AKT1 = biological target: T11, AKT1 (Homo sapiens, UniProt P31749); experiment: Kinome profiling; assay type: biochemical; conditions: VT02956 (5 nM)
T11 construct: LATS1/LATS2 enzymes from Signalchem

CK2a2 = biological target: T12, CK2a2 (Homo sapiens, UniProt P19784); experiment: Kinome profiling; assay type: biochemical; conditions: VT02956 (5 nM), read-out: % enzymatic activity relative to DMSO controls
T12 construct: LATS1/LATS2 enzymes from Signalchem

CDK9/cyclin T1 = biological target: T13, CDK9/cyclin T1 (Homo sapiens, UniProt P50750); experiment: Kinome profiling; assay type: biochemical; conditions: VT02956 (5 nM), read-out: % enzymatic activity relative to DMSO controls
T13 construct: LATS1/LATS2 enzymes from Signalchem

WNK3 = biological target: T14, WNK3 (Homo sapiens, UniProt Q9BYP7); experiment: Kinome profiling; assay type: biochemical; conditions: VT02956 (5 nM), read-out: % enzymatic activity relative to DMSO controls
T14 construct: LATS1/LATS2 enzymes from Signalchem

NEK11 = biological target: T15, NEK11 (Homo sapiens, UniProt Q8NG66); experiment: Kinome profiling; assay type: biochemical; conditions: VT02956 (5 nM), read-out: % enzymatic activity relative to DMSO controls
T15 construct: LATS1/LATS2 enzymes from Signalchem

PHKg2 = biological target: T16, PHKg2 (Homo sapiens, UniProt P15735); experiment: Kinome profiling; assay type: biochemical; conditions: VT02956 (5 nM), read-out: % enzymatic activity relative to DMSO controls
T16 construct: LATS1/LATS2 enzymes from Signalchem

EPHA3 = biological target: T17, EPHA3 (Homo sapiens, UniProt P29320); experiment: Kinome profiling; assay type: biochemical; conditions: VT02956 (5 nM), read-out: % enzymatic activity relative to DMSO controls
T17 construct: LATS1/LATS2 enzymes from Signalchem

KSR2 = biological target: T18, KSR2 (Homo sapiens, UniProt Q6VAB6); experiment: Kinome profiling; assay type: biochemical; conditions: VT02956 (5 nM), read-out: % enzymatic activity relative to DMSO controls
T18 construct: LATS1/LATS2 enzymes from Signalchem

AKT2 = biological target: T19, AKT2 (Homo sapiens, UniProt P31751); experiment: Kinome profiling; assay type: biochemical; conditions: VT02956 (5 nM), read-out: % enzymatic activity relative to DMSO controls
T19 construct: LATS1/LATS2 enzymes from Signalchem

RSK1 = biological target: T20, RSK1 (Homo sapiens, UniProt Q15418); experiment: Kinome profiling; assay type: biochemical; conditions: VT02956 (5 nM), read-out: % enzymatic activity relative to DMSO controls
T20 construct: LATS1/LATS2 enzymes from Signalchem

MUSK = biological target: T21, MUSK (Homo sapiens, UniProt O15146); experiment: Kinome profiling; assay type: biochemical; conditions: VT02956 (5 nM), read-out: % enzymatic activity relative to DMSO controls
T21 construct: LATS1/LATS2 enzymes from Signalchem

CK2a = biological target: T22, CK2a (Homo sapiens, UniProt P68400); experiment: Kinome profiling; assay type: biochemical; conditions: VT02956 (5 nM), read-out: % enzymatic activity relative to DMSO controls
T22 construct: LATS1/LATS2 enzymes from Signalchem

SNRK = biological target: T23, SNRK (Homo sapiens, UniProt Q9NRH2); experiment: Kinome profiling; assay type: biochemical; conditions: VT02956 (5 nM), read-out: % enzymatic activity relative to DMSO controls
T23 construct: LATS1/LATS2 enzymes from Signalchem

IKKb/IKBKB = biological target: T24, IKKb/IKBKB (Homo sapiens, UniProt O14920); experiment: Kinome profiling; assay type: biochemical; conditions: VT02956 (5 nM), read-out: % enzymatic activity relative to DMSO controls
T24 construct: LATS1/LATS2 enzymes from Signalchem

COT1/MAP3K8 = biological target: T25, COT1/MAP3K8 (Homo sapiens, UniProt P41279); experiment: Kinome profiling; assay type: biochemical; conditions: VT02956 (5 nM), read-out: % enzymatic activity relative to DMSO controls
T25 construct: LATS1/LATS2 enzymes from Signalchem
T25 sequence (P41279 whole entry): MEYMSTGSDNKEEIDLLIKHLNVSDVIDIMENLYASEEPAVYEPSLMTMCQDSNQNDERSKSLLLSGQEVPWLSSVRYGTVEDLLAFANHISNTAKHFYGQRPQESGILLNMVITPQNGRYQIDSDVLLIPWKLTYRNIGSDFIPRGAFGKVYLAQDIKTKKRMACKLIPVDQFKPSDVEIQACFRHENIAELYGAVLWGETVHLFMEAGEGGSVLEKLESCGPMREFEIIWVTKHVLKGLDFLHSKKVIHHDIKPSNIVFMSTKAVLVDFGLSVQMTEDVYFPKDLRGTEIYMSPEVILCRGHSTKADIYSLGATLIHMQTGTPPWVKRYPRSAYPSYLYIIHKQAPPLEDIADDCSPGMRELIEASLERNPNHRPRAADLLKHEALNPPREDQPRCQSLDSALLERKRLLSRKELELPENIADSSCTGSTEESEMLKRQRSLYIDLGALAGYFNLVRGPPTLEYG

T23 sequence (Q9NRH2 whole entry): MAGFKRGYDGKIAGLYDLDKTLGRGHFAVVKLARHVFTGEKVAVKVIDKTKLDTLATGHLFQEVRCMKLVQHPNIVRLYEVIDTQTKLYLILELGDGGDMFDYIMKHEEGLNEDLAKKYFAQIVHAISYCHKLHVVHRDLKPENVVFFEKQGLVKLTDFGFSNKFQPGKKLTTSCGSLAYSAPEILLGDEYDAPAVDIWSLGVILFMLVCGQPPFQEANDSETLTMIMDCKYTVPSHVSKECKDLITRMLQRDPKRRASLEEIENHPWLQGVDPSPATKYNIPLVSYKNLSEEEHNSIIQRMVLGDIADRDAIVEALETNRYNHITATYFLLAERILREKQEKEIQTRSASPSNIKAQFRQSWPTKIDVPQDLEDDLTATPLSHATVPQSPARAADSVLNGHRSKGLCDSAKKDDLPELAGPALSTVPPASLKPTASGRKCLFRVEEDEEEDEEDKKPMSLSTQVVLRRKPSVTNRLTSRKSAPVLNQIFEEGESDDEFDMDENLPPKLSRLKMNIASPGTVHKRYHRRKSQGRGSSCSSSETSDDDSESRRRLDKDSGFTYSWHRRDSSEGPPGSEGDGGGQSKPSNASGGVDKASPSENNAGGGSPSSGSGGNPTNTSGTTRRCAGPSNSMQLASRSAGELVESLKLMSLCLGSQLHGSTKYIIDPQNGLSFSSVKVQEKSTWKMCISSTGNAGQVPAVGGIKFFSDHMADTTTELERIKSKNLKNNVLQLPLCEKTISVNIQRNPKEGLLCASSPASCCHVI
T10 sequence (P29597 whole entry): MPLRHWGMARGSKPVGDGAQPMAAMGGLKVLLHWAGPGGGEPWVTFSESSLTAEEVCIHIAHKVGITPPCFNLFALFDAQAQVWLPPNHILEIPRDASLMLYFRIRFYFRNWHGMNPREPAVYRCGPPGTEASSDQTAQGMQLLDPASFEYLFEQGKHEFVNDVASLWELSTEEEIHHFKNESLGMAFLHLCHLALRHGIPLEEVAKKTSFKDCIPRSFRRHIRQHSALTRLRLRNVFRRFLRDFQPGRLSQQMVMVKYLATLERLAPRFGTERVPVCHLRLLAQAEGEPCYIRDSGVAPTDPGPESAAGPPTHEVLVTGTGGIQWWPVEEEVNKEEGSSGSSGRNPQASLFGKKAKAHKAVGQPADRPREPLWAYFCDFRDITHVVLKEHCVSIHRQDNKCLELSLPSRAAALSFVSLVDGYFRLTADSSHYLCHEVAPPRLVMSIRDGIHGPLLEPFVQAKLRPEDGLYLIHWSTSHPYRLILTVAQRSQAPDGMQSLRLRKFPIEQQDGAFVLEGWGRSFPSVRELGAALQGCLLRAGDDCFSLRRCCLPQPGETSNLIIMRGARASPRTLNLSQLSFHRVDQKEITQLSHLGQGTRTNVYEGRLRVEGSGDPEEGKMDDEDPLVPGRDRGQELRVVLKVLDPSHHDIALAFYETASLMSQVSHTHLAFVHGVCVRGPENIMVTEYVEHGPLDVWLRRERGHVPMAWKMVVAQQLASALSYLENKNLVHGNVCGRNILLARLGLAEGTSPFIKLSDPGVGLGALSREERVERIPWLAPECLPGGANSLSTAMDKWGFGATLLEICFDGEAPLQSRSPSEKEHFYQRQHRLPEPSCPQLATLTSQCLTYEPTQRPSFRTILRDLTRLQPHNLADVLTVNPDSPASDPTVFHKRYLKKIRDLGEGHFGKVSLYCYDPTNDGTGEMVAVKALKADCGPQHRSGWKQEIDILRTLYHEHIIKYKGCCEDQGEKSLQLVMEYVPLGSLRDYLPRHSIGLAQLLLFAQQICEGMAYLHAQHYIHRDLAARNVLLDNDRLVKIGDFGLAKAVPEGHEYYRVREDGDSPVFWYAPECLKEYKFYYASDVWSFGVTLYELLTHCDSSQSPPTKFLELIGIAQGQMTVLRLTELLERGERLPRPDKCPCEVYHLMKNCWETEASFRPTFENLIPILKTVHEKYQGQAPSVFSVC
T22 sequence (P68400 whole entry): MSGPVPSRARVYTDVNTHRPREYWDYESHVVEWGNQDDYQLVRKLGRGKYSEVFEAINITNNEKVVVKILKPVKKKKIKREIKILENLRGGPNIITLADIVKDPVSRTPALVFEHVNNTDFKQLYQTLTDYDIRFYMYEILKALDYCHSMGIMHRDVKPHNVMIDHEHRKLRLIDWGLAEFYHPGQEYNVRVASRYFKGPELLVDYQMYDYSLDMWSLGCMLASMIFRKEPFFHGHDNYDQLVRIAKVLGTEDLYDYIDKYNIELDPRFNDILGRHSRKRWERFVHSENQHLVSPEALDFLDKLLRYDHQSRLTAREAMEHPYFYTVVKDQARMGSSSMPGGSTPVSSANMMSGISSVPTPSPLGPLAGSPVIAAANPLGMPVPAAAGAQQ
T20 sequence (Q15418 whole entry): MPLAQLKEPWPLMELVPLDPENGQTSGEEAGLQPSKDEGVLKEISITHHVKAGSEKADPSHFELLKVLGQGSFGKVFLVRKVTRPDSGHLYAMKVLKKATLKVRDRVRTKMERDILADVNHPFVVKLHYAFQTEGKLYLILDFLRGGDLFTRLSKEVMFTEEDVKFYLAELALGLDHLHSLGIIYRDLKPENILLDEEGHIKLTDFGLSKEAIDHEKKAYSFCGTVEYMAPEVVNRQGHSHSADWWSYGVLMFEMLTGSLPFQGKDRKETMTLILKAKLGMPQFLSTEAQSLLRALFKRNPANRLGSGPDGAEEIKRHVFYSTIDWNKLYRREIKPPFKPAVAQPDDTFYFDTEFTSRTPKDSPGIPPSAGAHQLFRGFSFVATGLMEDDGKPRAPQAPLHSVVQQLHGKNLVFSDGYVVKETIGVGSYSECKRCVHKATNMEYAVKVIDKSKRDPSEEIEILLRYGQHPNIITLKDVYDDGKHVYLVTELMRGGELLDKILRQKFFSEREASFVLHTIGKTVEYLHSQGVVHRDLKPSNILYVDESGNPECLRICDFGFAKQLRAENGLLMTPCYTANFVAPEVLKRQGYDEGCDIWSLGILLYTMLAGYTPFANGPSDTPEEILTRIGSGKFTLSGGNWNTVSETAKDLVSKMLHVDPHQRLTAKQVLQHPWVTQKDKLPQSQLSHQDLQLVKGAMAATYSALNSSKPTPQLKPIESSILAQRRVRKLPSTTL
T24 sequence (O14920 whole entry): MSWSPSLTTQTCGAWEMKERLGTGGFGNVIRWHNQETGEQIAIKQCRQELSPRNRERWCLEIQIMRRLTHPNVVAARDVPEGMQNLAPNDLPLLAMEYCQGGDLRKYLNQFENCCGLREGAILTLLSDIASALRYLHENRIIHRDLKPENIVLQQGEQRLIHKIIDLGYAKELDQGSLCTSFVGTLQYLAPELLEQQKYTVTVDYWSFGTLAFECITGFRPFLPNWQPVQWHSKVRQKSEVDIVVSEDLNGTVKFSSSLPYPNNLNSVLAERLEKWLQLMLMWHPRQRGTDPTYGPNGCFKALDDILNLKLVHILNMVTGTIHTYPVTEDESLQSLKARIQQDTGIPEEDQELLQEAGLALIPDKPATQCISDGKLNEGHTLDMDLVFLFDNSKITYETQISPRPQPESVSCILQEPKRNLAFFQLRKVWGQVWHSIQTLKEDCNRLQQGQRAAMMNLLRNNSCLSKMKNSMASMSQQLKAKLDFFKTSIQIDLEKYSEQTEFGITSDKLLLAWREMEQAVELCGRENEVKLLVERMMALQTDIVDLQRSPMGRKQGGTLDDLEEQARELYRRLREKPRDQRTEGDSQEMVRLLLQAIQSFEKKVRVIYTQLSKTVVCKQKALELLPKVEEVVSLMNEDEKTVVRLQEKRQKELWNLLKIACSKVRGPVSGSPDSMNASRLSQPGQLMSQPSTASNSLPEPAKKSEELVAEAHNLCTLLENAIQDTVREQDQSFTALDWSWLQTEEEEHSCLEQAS
T16 sequence (P15735 whole entry): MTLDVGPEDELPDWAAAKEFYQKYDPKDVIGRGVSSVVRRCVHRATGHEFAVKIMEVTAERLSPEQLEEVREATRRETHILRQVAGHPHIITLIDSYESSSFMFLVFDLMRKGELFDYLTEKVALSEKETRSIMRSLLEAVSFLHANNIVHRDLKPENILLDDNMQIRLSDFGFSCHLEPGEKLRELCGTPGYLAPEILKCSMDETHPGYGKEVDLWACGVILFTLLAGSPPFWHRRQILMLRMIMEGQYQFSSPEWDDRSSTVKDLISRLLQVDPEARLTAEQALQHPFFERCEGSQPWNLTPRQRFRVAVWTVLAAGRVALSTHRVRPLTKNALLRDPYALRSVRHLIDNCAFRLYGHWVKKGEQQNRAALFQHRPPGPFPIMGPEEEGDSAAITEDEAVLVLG

NCC1CCN(c2nc(-c3ccncc3)nc3c(C#CCO)cccc23)CC1 [VT02956]
growth of ER negative breast cancer MDA-MB-231 cells (MDA-MB-231 cells): had little effect
growth of ER negative melanoma B16 cells (melanoma B16 cells): had little effect
remaining activity at 0.005 µM (STK38/NDR1): 16%
% enzymatic activity relative to DMSO controls (LATS1): 22%
remaining activity at 0.005 µM (PKAcg): 28%
% enzymatic activity relative to DMSO controls (PKN3/PRK3): 64%
remaining activity at 0.005 µM (PKA): 68%
remaining activity at 0.005 µM (PKN1/PRK1): 69%
remaining activity at 0.005 µM (RIPK2): 75%
% enzymatic activity relative to DMSO controls (PKMYT1): 77%
remaining activity at 0.005 µM (FER): 78%
% enzymatic activity relative to DMSO controls (TYK2): 78%
% enzymatic activity relative to DMSO controls (AKT1): 78%
remaining activity at 0.005 µM (CK2a2): 78%
remaining activity at 0.005 µM (CDK9/cyclin T1): 80%
remaining activity at 0.005 µM (WNK3): 82%
remaining activity at 0.005 µM (NEK11): 82%
remaining activity at 0.005 µM (PHKg2): 82%
remaining activity at 0.005 µM (EPHA3): 84%
remaining activity at 0.005 µM (KSR2): 83%
remaining activity at 0.005 µM (AKT2): 85%
remaining activity at 0.005 µM (RSK1): 86%
remaining activity at 0.005 µM (MUSK): 85%
remaining activity at 0.005 µM (CK2a): 85%
remaining activity at 0.005 µM (SNRK): 86%
remaining activity at 0.005 µM (IKKb/IKBKB): 86%
remaining activity at 0.005 µM (COT1/MAP3K8): 86%
